Here are results for four molecules from publication PMC5452347, “Serendipitous discovery of light-induced (In Situ) formation of an Azo-bridged dimeric sulfonated naphthol as a potent PTP1B inhibitor” (BMC Biochemistry, 2017).

Data set [1] in a line: Nephelometry (compound aggregation). Type of data set: physicochemical. As to the method:
Nephelometry was performed to determine the relative propensity of the inhibitor compounds to aggregate in solution, based on the light scattering properties of the molecular aggregates. Compound aggregation can lead to artifact inhibitory effects, thus confounding a study of mechanism of inhibition. Compounds were tested for aggregation in a 96-well plate format, final volume 200 μL, using the phosphatase activity assay buffer at pH 7.5 without added pNPP. […] Eight wells were used for blanks and for each compound concentration. Plates were analyzed at two separate gains to determine if the signals were at saturating levels. Progesterone was used as a positive control for compound aggregation. Data were collected using a BMG […] Plus, equipped with a 635 nm laser.

A further data set deals with T1, DUSP5 PD(WT) (Homo sapiens, UniProt Q16690).
T1 construct: The DUSP5 phosphatase domain (DUSP5 PD(WT)) gene was synthesized by Blue Heron; made in house
T1 sequence (Q16690 178-319 limits assumed): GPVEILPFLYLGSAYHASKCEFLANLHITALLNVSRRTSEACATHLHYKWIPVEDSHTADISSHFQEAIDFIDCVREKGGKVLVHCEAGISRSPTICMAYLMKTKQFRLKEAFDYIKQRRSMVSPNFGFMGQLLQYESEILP
Briefly: DUSP5 PD(WT) in vitro phosphatase assay with pNPP as substrate. Type of data set: biochemical. How it is done: The DUSP5 phosphatase domain (DUSP5 PD(WT)) gene was synthesized by Blue Heron (Bothell, WA) and the protein expressed and purified as previously described. To measure the enzymatic activity of wild type phosphatase domain of DUSP5 {DUSP5 PD(WT)} and the inhibitory capacity of selected compounds, an in vitro phosphatase assay was utilized as previously described. Briefly, assays without and with inhibitors were performed in Greiner 96-well clear bottom plates with a total assay volume of 200 μL. The assay buffer contained 100 mM Tris, 100 mM NaCl, 5 mM MgCl2 • 6H2O and 1 mM dithiothreitol (DTT) at pH 7.5. p-nitrophenyl phosphate (pNPP, Sigma Aldrich) 5 mM was used as the substrate. DUSP5 PD(WT) dephosphorylates pNPP to yield p-nitrophenolate, which absorbs at 405 nm, having an extinction coefficient of 18,000 M^-1 cm^-1. The reaction was initiated by the addition of 4 μL of a 29 μM DUPSP5 PD(WT) enzyme stock and absorbance was monitored at 25 °C over time using a Spectramax M5 microplate reader (Molecular Devices). Blanks contained only buffer and pNPP. Negative controls (without inhibitor) contained assay buffer with pNPP and DUSP5 PD(WT).
Appropriate vehicles were added to the blank and negative control wells. A minimum of three replicate wells was run for each condition and at each inhibitor concentration. The replicate wells were averaged to give a single data point. The reaction was initiated upon addition of 4 μL of a 29 μM enzyme stock which was dispensed to each of the wells except the blanks utilizing a single channel pipette. The resulting DUSP5 PD(WT) concentration in the assay buffer was 0.58 μM. The plate was returned to the plate reader, shaken, and absorbance recorded at 25 °C every thirty seconds over a ten to sixty mins time course. In selected experiments the plate was returned to the plate reader following a 10 mins recording for one or two additional 10 mins absorbance recordings.
(§1) Initial rate values obtained from the plate reader were normalized to percent activity relative to the mean negative control rates. Graphpad Prism 6 software was utilized to calculate a non-linear regression (curve fit) using a variable slope model equation, constraining the top and bottom values to 100% activity and 0% activity, respectively, using the following equation:2 vi=Bottom+Top−Bottom/1+10^logIC50−x*HillSlope where v i is the initial rate.
To investigate the mechanism of DUSP5 PD(WT) inhibition by RR601, initial velocity inhibition profiles of RR601 were obtained in a 96-well plate format by measuring DUSP5 PD(WT) initial velocities in assay buffer containing of 1, 3, 9, 27 and 81 mM pNPP and 0, 3, 10, 30 and 75 μM RR601 at each pNPP concentration. Reactions were initiated by the addition of DUSP5 PD(WT) to a final concentration of 0.6 μM in each of the wells, excluding the blank. The data were fitted to a global competitive inhibition model (Graphpad Prism) using the following equation:3 vi=VmaxS/Km1+I/Ki+S where v is the initial velocity, V max the maximum velocity, K m the Michaelis constant, [S] the concentration of pNPP, [I] the concentration of RR601 and K i the inhibition constant.

Data set [2] has as its target T2, PTP1B (Homo sapiens, UniProt P18031).
T2 construct: purchased Creative Biomart
T2 sequence (P18031 1-435): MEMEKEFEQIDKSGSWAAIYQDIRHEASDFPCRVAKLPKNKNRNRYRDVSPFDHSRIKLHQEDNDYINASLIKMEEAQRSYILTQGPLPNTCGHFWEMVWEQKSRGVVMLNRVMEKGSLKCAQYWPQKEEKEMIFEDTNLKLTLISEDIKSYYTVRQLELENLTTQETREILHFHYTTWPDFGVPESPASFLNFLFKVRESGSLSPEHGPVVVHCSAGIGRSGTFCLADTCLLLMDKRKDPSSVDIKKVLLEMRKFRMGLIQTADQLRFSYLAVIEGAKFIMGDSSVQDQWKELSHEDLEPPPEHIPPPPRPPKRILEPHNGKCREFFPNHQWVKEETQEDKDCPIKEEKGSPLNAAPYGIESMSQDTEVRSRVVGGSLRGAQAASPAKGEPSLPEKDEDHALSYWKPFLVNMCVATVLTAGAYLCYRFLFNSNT
Briefly: PTP1B in vitro phosphatase assay with pNPP. Type of data set: biochemical. As to the method:
To examine the capacity of RR601 to inhibit protein-tyrosine phosphatase 1B (PTP1B), (Creative Biomart), activity, an in vitro phosphatase assay was adapted from. Assays with and without inhibitor were performed in Corning 96-well clear bottom plates having a non-binding surface, with a total assay volume of 200 μL. The assay buffer contained 100 mM Tris, 100 mM NaCl, 1 mM EDTA at pH 7.0 and 2.2 mM pNPP as the substrate. […] The reaction was initiated upon addition of 4 μL of a 5.0 μM PTP1B stock, which was dispensed to each of the wells except the blanks using a single channel pipette. The resulting PTPB1 concentration in the assay buffer was 0.1 μM. […] Assays were performed in 96-well plates in a similar manner as reported above. The assay buffer contained 50 mM HEPES (pH 7.4), 2 mM EDTA, 3 mM DTT and 100 mM NaCl. An initial experiment was performed to determine the kinetic parameters of the SHP-2 enzyme. The reaction was initiated with the addition of 4 μL of a 0.35 μM stock SHP-2 enzyme into wells containing 0, 1, 3, 9, 27 and 81 μM pNPP. The SHP-2 assay concentration was 7 nM. Absorbance was recorded every 30 s over a ten minute assay period at a temperature of 25 °C (Additional file 1: Fig. S8). Initial velocities were fit to the Michaelis-Menten equation:1 v=VmaxS/Km+S where v is the initial velocity, V max the maximum velocity, K m the Michaelis constant, and [S] the pNPP concentration. […] Assay buffer contained 7.5 mM pNPP, roughly one-half the value of the Michaelis constant determined from the study above. Reactions were initiated with the addition of 4 μL SHP-2 enzyme, resulting in a final assay enzyme concentration of 7 nM.
as §1

For data set [3], the target named is T2, PTP1B. Set-up: method as in PMID 16717135. The conditions noted are these: read-out: IC50, PTP1B (reported); cited from earlier work.
In a further data set the test system is SHP2. Set-up: method as in PMID 16717135. The following applies: read-out: IC50, SHP2 (reported); cited from earlier work.
A further data set addresses T3, SHP-2 (Homo sapiens, UniProt Q06124).
T3 construct: purchased Creative Biomart
T3 sequence (Q06124 1-593): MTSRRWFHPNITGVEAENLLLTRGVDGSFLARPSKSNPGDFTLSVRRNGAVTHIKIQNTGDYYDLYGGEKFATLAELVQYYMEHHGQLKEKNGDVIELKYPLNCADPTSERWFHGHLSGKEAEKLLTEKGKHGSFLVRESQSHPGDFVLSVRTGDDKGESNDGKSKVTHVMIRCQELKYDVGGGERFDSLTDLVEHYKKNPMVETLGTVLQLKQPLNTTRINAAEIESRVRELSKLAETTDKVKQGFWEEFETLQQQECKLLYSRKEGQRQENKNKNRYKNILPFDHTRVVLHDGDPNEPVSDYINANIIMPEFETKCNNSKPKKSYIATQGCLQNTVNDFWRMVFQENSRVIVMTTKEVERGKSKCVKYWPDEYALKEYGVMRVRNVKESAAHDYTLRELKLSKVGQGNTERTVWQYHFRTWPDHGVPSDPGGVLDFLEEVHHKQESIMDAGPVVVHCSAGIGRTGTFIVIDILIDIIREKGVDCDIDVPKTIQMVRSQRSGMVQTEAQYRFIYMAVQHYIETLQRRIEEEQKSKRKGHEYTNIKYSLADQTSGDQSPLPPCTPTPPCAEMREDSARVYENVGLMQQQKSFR
Briefly: SHP-2 in vitro phosphatase assay with pNPP. Type of data set: biochemical.
Source text: as §1

Another data set addresses T4, GST-DUSP5 (Homo sapiens, UniProt Q16690).
T4 construct: this assay was done with full-length protein (containing both domains), and using pERK as substrate; made in house
T4 sequence (Q16690 1-384): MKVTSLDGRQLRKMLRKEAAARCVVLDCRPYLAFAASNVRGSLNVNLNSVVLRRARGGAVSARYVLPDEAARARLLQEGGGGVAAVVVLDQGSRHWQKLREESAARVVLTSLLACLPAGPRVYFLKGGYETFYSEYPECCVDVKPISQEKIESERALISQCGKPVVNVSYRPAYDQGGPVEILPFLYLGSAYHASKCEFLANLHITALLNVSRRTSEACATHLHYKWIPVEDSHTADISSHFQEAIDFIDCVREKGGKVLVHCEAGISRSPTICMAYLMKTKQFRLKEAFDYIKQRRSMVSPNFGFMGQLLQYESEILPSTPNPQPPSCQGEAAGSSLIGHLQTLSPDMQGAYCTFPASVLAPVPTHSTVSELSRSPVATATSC
Briefly: In vitro ERK dephosphorylation (pERK) western blot assay. Type of data set: biochemical. The conditions noted are these: full-length GST-DUSP5, pERK as substrate; global fit of three experiments.

Read-outs that look alike come from different tables or passages of the source.

Procedure for GST-DUSP5: The protein was diluted in phospho-ERK buffer (30 mM Tris-HCl pH 7.0, 75 mM NaCl, 0.67 mM EDTA, 1 mM DTT, H2O) to a concentration of 1.5–3.0 nM, depending on the purity. […] 5 μL each of GST-DUSP5 and diluted compound concentrations were incubated for 5 mins after which 5 μL of 30 nM ERK2 was added and allowed to incubate for 20 mins. After this time 15 μL SDS-Loading buffer was added to each reaction. Samples were boiled for 5 mins, loaded into lanes of 12% Mini-Protean TGX gels (Bio-Rad Laboratories Inc, Hercules CA), and run at 120 V. Protein samples were then transferred to PVDF western blotting Membranes (Roche Diagnostics, Indianapolis IN) at 90 V for 1 h. Membranes were treated and utilized in the iBind Flex Western Device (Thermo Fisher Scientific, Waltham MA) according to manufacturer protocols. Membranes were probed for total and phospho-ERK using rabbit anti-human p44/42 MAPK and mouse anti-human phospho-p44/42 MAPK primary antibodies and HRP-linked anti-rabbit and anti-mouse secondary antibodies (Cell Signaling Technology Inc, Danvers MA). Images were developed using a FluorChem HD2 imager (Bio-Techne, Minneapolis MN) after application of SuperSignal West Femto and West Pico chemiluminescent substrate (Thermo Fisher Scientific).
Densitometry analysis of western blot images was performed using ImageJ software. […]

For `Nc1cccc2c(O)cc(S(=O)(=O)O)cc12` [RR535, 1-amino-5-naphthol-7-sulfonic acid], in data set [1] (1 to 300 μM, stocks stored in the dark or exposed to room light for seventeen days), the “Compound aggregation over the concentration range tested (nephelometry)” value is “little or no measurable aggregation”.

As a reminder, the IC50 is the concentration at which inhibition is half-maximal. As to `O=S(=O)(O)c1ccc2cc(N=Nc3cc(S(=O)(=O)O)c4cccnc4c3O)ccc2c1` [NSC-87877], on DUSP5 PD(WT) (pNPP, at 60 minutes, 0.1 to 300 μM), the “IC50, DUSP5 PD(WT)” value was “did not inhibit”. The IC50 on DUSP5 PD(WT) (pNPP, at 60 minutes, 0.1 to 300 μM, read-out: IC50, DUSP5 PD(WT)) was greater than 3000 µM; at PTP1B [2] (pNPP, continuous monitoring over 60 min, read-out: IC50, PTP1B, after 50 mins of the reaction assay), 723 ± 302 µM; on PTP1B [2] (pNPP, continuous monitoring over 60 min, read-out: IC50, PTP1B, after 60 mins of the reaction assay), 337 ± 130 µM; at PTP1B [3] it was 1.7 µM; with SHP2 it was […]. Besides, the “Inhibition of PTP1B activity, initially” value at PTP1B [2] (0.1 to 300 μM, start of assay) is given as “did not initially inhibit”.

The term Ki denotes the dissociation constant of the complex between target and ligand, obtained from inhibition or displacement. Regarding `O=S(=O)(O)c1cc(O)c2cccc(/N=N/c3cccc4c(O)cc(S(=O)(=O)O)cc34)c2c1` [RR601], the IC50 on DUSP5 PD(WT) (MP Biomedicals and RR535 stocks exposed to light 90 days, RR601 freshly prepared, pNPP, ± SE, read-out: DUSP5 PD(WT) inhibitor IC50, assay reaction period 15 – 25 min) came out at 36.5 ± 1.5 µM; at DUSP5 PD(WT) (pNPP substrate, read-out: IC50, DUSP5 PD(WT) (summary value)), 36 µM; on DUSP5 PD(WT) (read-out: DUSP5 PD(WT) inhibitor IC50, assay reaction period 0 – 10 min, MP Biomedicals and RR535 stocks exposed to light 90 days, RR601 freshly prepared, pNPP, ± SE), 36.9 ± 3.9 µM; on DUSP5 PD(WT) (read-out: DUSP5 PD(WT) inhibitor IC50, assay reaction period 30 – 40 min, MP Biomedicals and RR535 stocks exposed to light 90 days, RR601 freshly prepared, pNPP, ± SE), 34.5 ± 1.4 µM; at SHP-2 (pNPP 7.5 mM, 10 min reaction, ± SE), 1.1 ± 0.1 µM; on PTP1B [2] (pNPP 2.2 mM, 10 min recording, ± SE, read-out: IC50, PTP1B), 2.1 ± 0.2 µM. For the same molecule, at GST-DUSP5, the midpoint of inhibition, the IC50, lay at 4.8 µM. For the same molecule, the “Vmax of DUSP5 PD(WT), Lineweaver-Burk” value amounted to 0.54 µM/min at DUSP5 PD(WT) (in the presence of 3 µM RR601), 0.61 µM/min on DUSP5 PD(WT) (in the presence of 10 µM RR601), 0.62 µM/min at DUSP5 PD(WT) (in the presence of 30 µM RR601) and 0.69 µM/min at DUSP5 PD(WT) (in the presence of 75 µM RR601). In addition, the “Mechanism of DUSP5 PD(WT) inhibition” value at DUSP5 PD(WT) (initial velocity studies varying pNPP and RR601) was “competitive inhibitor”. Moreover, the Ki at SHP-2 (1-30 mM pNPP, 0-3.0 µM RR601, ± SE, read-out: Ki, SHP-2, global competitive model fit) was 0.38 ± 0.05 µM. For the same molecule, at SHP-2 (substrate concentrations less than 30 mM), the “Mechanism of SHP-2 inhibition” value is reported as “fit best to a competitive inhibition model”. The “Selectivity for PTP1B versus DUSP5” value at PTP1B [2] (ratio of IC50 values) was 18 fold.

As for `CC(=O)[C@H]1CC[C@H]2[C@@H]3CCC4=CC(=O)CC[C@]4(C)[C@H]3CC[C@]12C` [progesterone, reference compound], in data set [1] (phosphatase assay buffer pH 7.5 without pNPP), the “Concentration at which aggregation begins (nephelometry)” value was “approximately 100 μM”.
